In ChEMBL document CHEMBL3352030, “Evaluation of the cyclopentane-1,2-dione as a potential bio-isostere of the carboxylic acid functional group” (Bioorg Med Chem Lett, 2014):

Tests used:
Thromboxane A2 receptor = molecular target: T1, Thromboxane A2 receptor (Homo sapiens, UniProt P21731); assay: Inhibition of human TP receptor expressed in QBI-HEK 293A cells assessed as IP3 metabolite level after 1 hr by HTRF assay; format: functional, cell-based
T1 sequence (P21731 whole entry): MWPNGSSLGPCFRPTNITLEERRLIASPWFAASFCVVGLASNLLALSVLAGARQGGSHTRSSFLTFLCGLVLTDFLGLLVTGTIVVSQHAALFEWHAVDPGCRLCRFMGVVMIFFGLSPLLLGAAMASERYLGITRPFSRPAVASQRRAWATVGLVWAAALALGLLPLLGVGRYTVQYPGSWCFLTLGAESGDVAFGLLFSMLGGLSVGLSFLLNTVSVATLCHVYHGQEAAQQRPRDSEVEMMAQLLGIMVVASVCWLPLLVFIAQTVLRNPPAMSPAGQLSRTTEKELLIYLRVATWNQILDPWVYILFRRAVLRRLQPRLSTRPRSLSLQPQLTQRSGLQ

[1] = Dissociation constant, pKa of the compound by potentiometric titration
Plasma = assay: Stability in CD-1 mouse plasma at 1 uM after 1 hr by LC/MS/MS analysis; format: ADME, cell-free

IC50 (Thromboxane A2 receptor) [µM] | pKa [1] | Stability (Plasma) | SMILES
0.0026 | – | – | O=C(O)CCc1cccc2c1CCC(NS(=O)(=O)c1ccc(Cl)cc1)C2 (stereo not given)
– | 8.6 | – | O=C1CCC(Cc2ccc(Br)cc2)=C1O
0.054 | – | Stable | O=C1CCC(Cc2cccc(CCNS(=O)(=O)c3ccc(Cl)cc3)c2)=C1O
1.14 | – | – | O=C1CC(c2cccc(CCNS(=O)(=O)c3ccc(Cl)cc3)c2)C=C1O (stereo not given)
